The source of these data is US8940756B2, “Dihydronaphthyridines and related compounds useful as kinase inhibitors for the treatment of proliferative diseases” (Deciphera Pharmaceuticals, Inc., priority 2012, dated 2015).

Experiment [1] concerns the target T1, c-KIT D816H kinase (Seq ID no. 3) (Homo sapiens, UniProt P10721, D816H).
T1 construct: GST (N); TEV cleavage site (N); purchased deCODE Biostructures
The experiment is described as follows: c-KIT D816H Kinase Assay. Format: biochemical. Conditions: enzymatic assay, ATP 200 μM. As for the experimental part: In this assay, the oxidation of NADH (measured by decrease in absorbance at 340 nm) was continuously monitored spectrophotometrically. […] The inhibition reaction was started by mixing serial diluted test compound with the above reaction mixture. The absorption at 340 nm was monitored continuously for 6 hours at 30° C. on Synergy 2 plate reader (BioTech). […] The protein construct was prepared by deCODE Biostructures using procedures known in the art. The construct contains […] of cKit, an N-terminal tag, a GST-fusion sequence and a TEV cleavage site. This construct is identical to Seq ID no. 1 except for the D816H mutation.

Experiment [2] has as its target T2, c-KIT D816V kinase (Seq ID no. 4) (Homo sapiens, UniProt P10721, D816V).
T2 construct: D816V c-KIT (residues T544-V976 with N-terminal GST fusion, 16 nM); purchased deCODE Biostructures
Put plainly: c-KIT D816V kinase Assay. Format: biochemical. Conditions: enzymatic assay, ATP 200 uM. As to the method: In this assay, the oxidation of NADH (measured by decrease in absorbance at 340 nm) was continuously monitored spectrophotometrically. […] The inhibition reaction was started by mixing serial diluted test compound with the above reaction mixture. The absorption at 340 nm was monitored continuously for 5 hours at 30° C. on Synergy 2 plate reader (BioTech).
The protein construct was prepared by deCODE Biostructures using procedures known in the art. The construct contains residues T544-V976 of cKit, an N-terminal tag, a GST-fusion sequence and a TEV cleavage site. This construct is identical to Seq ID no. 1 except for the D816V mutation.

Experiment [3] deals with T3, c-KIT T670I kinase (Seq ID no. 6) (Homo sapiens, UniProt P10721, T670I).
T3 construct: GST (N); TEV cleavage site (N); purchased deCODE Biostructures
Put plainly: c-KIT T670I Kinase Assay. Conditions: enzymatic assay, ATP 200 uM. Format: biochemical. As to the method:
In this assay, the oxidation of NADH (measured by decrease in absorbance at 340 nm) was continuously monitored spectrophotometrically. […] The inhibition reaction was started by mixing serial diluted test compound with the above reaction mixture. The absorption at 340 nm was monitored continuously for 5 hours at 30° C. on Synergy 2 plate reader (BioTech). […] The protein construct was prepared by deCODE Biostructures using procedures known in the art. The construct contains […] of cKit, an N-terminal tag, a GST-fusion sequence and a TEV cleavage site. This construct is identical to Seq ID no.

The target of experiment [4] is T4, c-KIT kinase (Seq ID no. 1) (Homo sapiens, UniProt P10721).
T4 construct: GST (N); TEV cleavage site (N); purchased deCODE Biostructures
The experiment is described as follows: c-KIT Kinase Assay (pyruvate kinase/lactate dehydrogenase coupled). Conditions: enzymatic assay, ATP 200 μM; read-out: KIT (wt). Format: biochemical. As for the experimental part:
In this assay, the oxidation of NADH (measured by decrease in absorbance at 340 nm) was continuously monitored spectrophotometrically. […] The absorption at 340 nm was monitored continuously for 2 hours at 30° C. on Synergy 2 (BioTeK). The reaction rate was calculated using the 0 to 1 h time frame. Percent inhibition was obtained by comparison of reaction rate with that of a control (i.e. with no test compound). IC50 values were calculated from a series of percent inhibition values determined at a range of inhibitor concentrations using software routines as implemented in the GraphPad Prism software package. The protein construct was prepared by deCODE Biostructures using procedures known in the art. The construct contains […] of cKit, an N-terminal tag, a GST-fusion sequence and a TEV cleavage site.

Experiment [5] addresses Phospho-KIT (Tyr719) in GIST48 cells (Homo sapiens, UniProt P10721). Put plainly: GIST48 KIT Western Blot. Format: cell-based. Conditions: 4 hours, read-out: pKIT suppression by western blot analysi GIST48. As for the experimental part: (§1) GIST48, GIST430, and GIST882 cells were obtained from J. Fletcher (Brigham and Women's Hospital, Boston, Mass.). GIST T1 cells were obtained from B. Rubin (Cleveland Clinic, Cleveland, Ohio) and Professor Takahiro Taguchi (Kochi Medical School, Nankoku, Kochi, Japan). […] GIST430 cells were grown in Ham's F10 medium supplemented with 15% characterized fetal bovine serum (Invitrogen, Carlsbad, Calif.), 30 mg/L bovine pituitary extract (BD Biosciences, San Jose, Calif.), 0.5% Mito+ serum extender (BD Biosciences, San Jose, Calif.), 1 unit/mL penicillin G, 1 μg/ml streptomycin, and 0.29 mg/mL L-glutamine at 37° C., 5% CO2, 95% humidity. GIST T1 cells were grown in DMEM medium supplemented with 10% characterized fetal bovine serum (Invitrogen, Carlsbad, Calif.), 1 unit/mL penicillin G, 1 ng/ml streptomycin, and 0.29 mg/mL L-glutamine at 37° C., 5% CO2, and 95% humidity. Cells were allowed to expand until reaching 70-95% confluence at which point they were subcultured or harvested for assay use.
(§2) Two hundred fifty thousand cells were added per well in a 24-well tissue-culture treated plate. Cells were then incubated overnight at 37° C., 5% CO2, 95% humidity. Medium was aspirated, cells were washed with PBS, and serum-free RPMI1640 medium was added. A serial dilution of test compound was added to plates containing cells and plates were incubated for 4 hours at 37° C., 5% CO2, 95% humidity. Cells were washed with PBS, then lysed. Cell lysates were separated by SDS-PAGE and transferred to PVDF. Phospho-KIT (Tyr719) was detected using an antibody from Cell Signaling Technology (Beverly, Mass.), ECL Plus detection reagent (GE Healthcare, Piscataway, N.J.) and a Molecular Devices Storm 840 phosphorimager in fluorescence mode. Blots were stripped and probed for total KIT using an antibody from Santa Cruz Biotech (Santa Cruz, Calif.). IC50 values were calculated using Prism software (Graphpad, San Diego, Calif.).

In experiment [6] the target is Phospho-KIT (Tyr719) in GIST430 cells (Homo sapiens, UniProt P10721). The experiment is described as follows: GIST430 KIT Western Blot. Format: cell-based. Conditions: 4 hours, read-out: pKIT suppression by western blot analysi GIST430. As to the method:
as §1
as §2, with “One” for “Two”, “Ham's F10” for “RPMI1640”
For orientation: In western blotting, separated proteins are transferred to a membrane and probed.

T3 sequence (P10721 544-976 T670I): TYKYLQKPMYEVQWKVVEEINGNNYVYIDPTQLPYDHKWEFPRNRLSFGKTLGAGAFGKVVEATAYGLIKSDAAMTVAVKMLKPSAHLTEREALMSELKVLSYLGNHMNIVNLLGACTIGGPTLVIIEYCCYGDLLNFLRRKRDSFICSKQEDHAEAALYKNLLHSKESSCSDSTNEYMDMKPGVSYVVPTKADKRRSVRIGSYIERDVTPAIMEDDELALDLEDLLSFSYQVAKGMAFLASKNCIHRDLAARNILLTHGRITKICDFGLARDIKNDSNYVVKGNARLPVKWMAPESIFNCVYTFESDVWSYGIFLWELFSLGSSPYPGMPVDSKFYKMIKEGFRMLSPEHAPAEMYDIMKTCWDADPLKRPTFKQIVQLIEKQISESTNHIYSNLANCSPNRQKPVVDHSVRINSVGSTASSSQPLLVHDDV
T2 sequence (P10721 544-976 D816V): as the sequence (P10721 544-976 T670I) above, with I127T, D273V counted along it
T4 sequence (P10721 with tags, fused parts or gaps): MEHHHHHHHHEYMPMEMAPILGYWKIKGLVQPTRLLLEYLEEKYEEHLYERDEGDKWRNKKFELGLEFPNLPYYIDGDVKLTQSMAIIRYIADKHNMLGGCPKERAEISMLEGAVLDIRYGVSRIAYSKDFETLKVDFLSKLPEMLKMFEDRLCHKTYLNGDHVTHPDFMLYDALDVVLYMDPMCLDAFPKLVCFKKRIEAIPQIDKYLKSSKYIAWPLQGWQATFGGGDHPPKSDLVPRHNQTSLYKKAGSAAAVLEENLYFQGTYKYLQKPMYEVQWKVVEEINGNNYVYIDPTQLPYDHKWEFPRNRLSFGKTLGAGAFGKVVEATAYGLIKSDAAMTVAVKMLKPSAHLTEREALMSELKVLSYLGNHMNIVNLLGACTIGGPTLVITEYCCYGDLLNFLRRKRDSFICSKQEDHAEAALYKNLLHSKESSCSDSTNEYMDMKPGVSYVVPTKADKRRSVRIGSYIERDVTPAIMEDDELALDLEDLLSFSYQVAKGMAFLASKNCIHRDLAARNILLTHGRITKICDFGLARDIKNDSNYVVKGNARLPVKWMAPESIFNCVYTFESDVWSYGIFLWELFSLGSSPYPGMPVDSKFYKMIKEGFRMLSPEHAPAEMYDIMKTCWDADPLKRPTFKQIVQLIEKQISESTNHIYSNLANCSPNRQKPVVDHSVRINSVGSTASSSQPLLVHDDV
T1 sequence (P10721 544-976 D816H): as the sequence (P10721 544-976 T670I) above, with I127T, D273H counted along it
Chain of Phospho-KIT (Tyr719) in GIST430 cells (P10721 with tags, fused parts or gaps DEL560-576/V654A, form open): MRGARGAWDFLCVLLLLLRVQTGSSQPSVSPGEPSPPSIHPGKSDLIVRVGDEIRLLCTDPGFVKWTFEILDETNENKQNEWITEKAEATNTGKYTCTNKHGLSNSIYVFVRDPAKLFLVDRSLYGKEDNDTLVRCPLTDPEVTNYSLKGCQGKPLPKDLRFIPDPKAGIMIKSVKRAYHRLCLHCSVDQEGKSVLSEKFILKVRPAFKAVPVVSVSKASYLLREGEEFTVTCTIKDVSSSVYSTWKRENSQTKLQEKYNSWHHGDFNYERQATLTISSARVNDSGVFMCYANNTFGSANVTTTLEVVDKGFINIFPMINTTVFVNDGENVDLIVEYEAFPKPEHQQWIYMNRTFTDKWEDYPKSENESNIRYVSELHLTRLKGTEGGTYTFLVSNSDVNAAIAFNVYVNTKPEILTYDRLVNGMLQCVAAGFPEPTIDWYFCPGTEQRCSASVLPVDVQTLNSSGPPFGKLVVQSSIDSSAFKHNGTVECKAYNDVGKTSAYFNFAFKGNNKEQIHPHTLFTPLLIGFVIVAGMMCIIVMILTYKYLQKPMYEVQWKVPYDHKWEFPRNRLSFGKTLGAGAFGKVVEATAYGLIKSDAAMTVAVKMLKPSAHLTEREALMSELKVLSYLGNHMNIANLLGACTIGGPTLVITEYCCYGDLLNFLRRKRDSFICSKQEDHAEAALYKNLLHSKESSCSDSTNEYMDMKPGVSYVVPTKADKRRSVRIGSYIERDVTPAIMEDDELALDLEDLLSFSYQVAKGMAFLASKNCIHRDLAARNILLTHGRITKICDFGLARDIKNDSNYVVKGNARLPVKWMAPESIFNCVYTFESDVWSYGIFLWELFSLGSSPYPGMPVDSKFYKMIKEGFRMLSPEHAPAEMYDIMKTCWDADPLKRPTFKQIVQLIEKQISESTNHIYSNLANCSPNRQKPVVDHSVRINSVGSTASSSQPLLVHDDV
Chain of Phospho-KIT (Tyr719) in GIST48 cells (P10721 whole entry V560D/D820A, form open): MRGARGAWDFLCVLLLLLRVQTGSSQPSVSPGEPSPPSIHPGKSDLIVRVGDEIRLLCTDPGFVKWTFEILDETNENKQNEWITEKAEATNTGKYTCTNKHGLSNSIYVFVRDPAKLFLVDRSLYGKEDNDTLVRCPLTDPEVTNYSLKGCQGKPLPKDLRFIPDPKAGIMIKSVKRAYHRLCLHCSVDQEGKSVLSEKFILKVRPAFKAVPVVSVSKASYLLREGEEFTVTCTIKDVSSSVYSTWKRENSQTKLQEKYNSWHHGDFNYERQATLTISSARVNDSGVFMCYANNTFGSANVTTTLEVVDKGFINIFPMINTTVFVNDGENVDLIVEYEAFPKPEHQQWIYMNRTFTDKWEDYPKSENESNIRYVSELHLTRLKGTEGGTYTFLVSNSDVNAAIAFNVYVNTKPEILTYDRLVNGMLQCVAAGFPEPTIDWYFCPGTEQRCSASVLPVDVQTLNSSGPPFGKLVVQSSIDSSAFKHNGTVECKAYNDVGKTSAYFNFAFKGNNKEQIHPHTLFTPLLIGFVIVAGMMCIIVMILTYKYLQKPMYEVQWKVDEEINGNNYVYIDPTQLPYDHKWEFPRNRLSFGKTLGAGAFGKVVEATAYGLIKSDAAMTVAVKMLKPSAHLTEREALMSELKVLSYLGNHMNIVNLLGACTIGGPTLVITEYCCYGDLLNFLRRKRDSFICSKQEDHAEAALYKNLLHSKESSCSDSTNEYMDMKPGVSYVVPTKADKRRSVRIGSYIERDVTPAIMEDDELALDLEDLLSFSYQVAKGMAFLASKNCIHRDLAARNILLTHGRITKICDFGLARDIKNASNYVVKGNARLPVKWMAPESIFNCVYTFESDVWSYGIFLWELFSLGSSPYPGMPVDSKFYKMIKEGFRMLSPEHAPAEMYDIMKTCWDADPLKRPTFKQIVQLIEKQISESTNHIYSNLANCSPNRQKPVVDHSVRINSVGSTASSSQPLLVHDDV

As for `CCn1c(=O)c(-c2cc(NC(=O)Nc3ccc(F)c(CN4CCCC4)c3)c(F)cc2Cl)cc2cnc(NC)cc21` [Example 97, 1-(4-chloro-5-(1-ethyl-7-(methylamino)-2-oxo-1,2-dihydro-1,6-naphthyridin-3-yl)-2-fluorophenyl)-3-(4-fluoro-3-(pyrrolidin-1-ylmethyl)phenyl)urea], the IC50 is 10 to 100 nM in experiment [1], over 1000 nM in experiment [2], 10 to 100 nM in experiment [3] and under 10 nM in experiment [4].
As to `CCn1c(=O)c(-c2cc(NC(=O)Nc3ccccc3)c(F)cc2Cl)cc2cnc(NC3CCOCC3)cc21` [Example 42, 1-(4-chloro-5-(1-ethyl-2-oxo-7-(tetrahydro-2H-pyran-4-ylamino)-1,2-dihydro-1,6-naphthyridin-3-yl)-2-fluorophenyl)-3-phenylurea], the IC50 fell in the range of 10 to 100 nM in experiment [2], 100 to 1000 nM in experiment [3] and 10 to 100 nM in experiment [4].
In the case of `CCn1c(=O)c(-c2cc(NC(=O)Nc3ccccc3)c(F)cc2Cl)cc2cnc(NC3CCOC3)cc21` (centres unmarked) [Example 47, 1-(4-chloro-5-(1-ethyl-2-oxo-7-(THF-3-ylamino)-1,2-dihydro-1,6-naphthyridin-3-yl)-2-fluorophenyl)-3-phenylurea], the figures for the IC50 in experiment [2], in experiment [3] and in experiment [4] were 10 to 100 nM, over 1000 nM and under 10 nM, respectively.
In the case of `CCn1c(=O)c(-c2cc(NC(=O)Nc3ccccc3)c(F)cc2F)cc2cnc(NC(C)=O)cc21` [Example 66, 1-(5-(7-acetamido-1-ethyl-2-oxo-1,2-dihydro-1,6-naphthyridin-3-yl)-2,4-difluorophenyl)-3-phenylurea], the IC50 in experiment [5] was 100 to 1000 nM; in experiment [2], 10 to 100 nM; in experiment [3], 10 to 100 nM; in experiment [4], under 10 nM; in experiment [6], 10 to 100 nM.
`CCn1c(=O)c(-c2cc(NC(=O)Nc3ccc(F)c(CN(C)C)c3)c(F)cc2Cl)cc2cnc(NC)cc21` [Example 94, 1-(4-chloro-5-(1-ethyl-7-(methylamino)-2-oxo-1,2-dihydro-1,6-naphthyridin-3-yl)-2-fluorophenyl)-3-(3-((dimethylamino)methyl)-4-fluorophenyl)urea]: the IC50 in experiment [2] is over 1000 nM; in experiment [3], 10 to 100 nM; in experiment [4] it was under 10 nM.
As for `CCn1c(=O)c(-c2cc(NC(=O)Nc3ccccc3)c(F)cc2Cl)cc2cnc(NC(=O)[C@@H]3CCCN3)cc21` [Example 85, (S)—N-(3-(2-chloro-4-fluoro-5-(3-phenylureido)phenyl)-1-ethyl-2-oxo-1,2-dihydro-1,6-naphthyridin-7-yl)pyrrolidine-2-carboxamide], the results for the IC50 in experiment [2], in experiment [3] and in experiment [4] were 10 to 100 nM, 100 to 1000 nM and 10 to 100 nM, respectively.
Turning to `CCn1c(=O)c(-c2cc(NC(=O)Nc3ccccc3)c(F)cc2Cl)cc2cnc(NC3CCN(C)C3)cc21` (centres unmarked) [Example 49, 1-(4-chloro-5-(1-ethyl-7-(1-methylpyrrolidin-3-ylamino)-2-oxo-1,2-dihydro-1,6-naphthyridin-3-yl)-2-fluorophenyl)-3-phenylurea], the IC50 fell in the range of 100 to 1000 nM in experiment [2], 100 to 1000 nM in experiment [3] and 10 to 100 nM in experiment [4].
For the compound `CCn1c(=O)c(-c2cc(NC(=O)Nc3ccccc3)c(F)cc2Br)cc2cnc(NCCS(C)(=O)=O)cc21` [Example 52, 1-(4-bromo-5-(1-ethyl-7-(2-(methylsulfonyl)ethylamino)-2-oxo-1,2-dihydro-1,6-naphthyridin-3-yl)-2-fluorophenyl)-3-phenylurea], the IC50 in experiment [1] is 100 to 1000 nM; in experiment [4], under 10 nM.
As for `CCn1c(=O)c(-c2cc(NC(=O)Nc3ccc(F)c(CN4CCOCC4)c3)c(F)cc2Cl)cc2cnc(NC=O)cc21` [Example 107, N-(3-(2-chloro-4-fluoro-5-(3-(4-fluoro-3-(morpholinomethyl)phenyl)ureido)phenyl)-1-ethyl-2-oxo-1,2-dihydro-1,6-naphthyridin-7-yl)formamide], the IC50 in experiment [2] was over 1000 nM; in experiment [3], 10 to 100 nM; in experiment [4] it was 10 to 100 nM.
As for `CCn1c(=O)c(-c2cc(NC(=O)Nc3ccccc3)c(F)cc2Cl)cc2cnc(NCCS(C)(=O)=O)cc21` [Example 48, 1-(4-chloro-5-(1-ethyl-7-(2-(methylsulfonyl)ethylamino)-2-oxo-1,2-dihydro-1,6-naphthyridin-3-yl)-2-fluorophenyl)-3-phenylurea], the IC50 in experiment [2] was 100 to 1000 nM; in experiment [3] it was over 1000 nM; in experiment [4], 10 to 100 nM.
With `CCn1c(=O)c(-c2cc(NC(=O)Nc3ccccc3)c(F)cc2C#N)cc2cnc(NC)cc21` [Example 76, 1-(4-cyano-5-(1-ethyl-7-(methylamino)-2-oxo-1,2-dihydro-1,6-naphthyridin-3-yl)-2-fluorophenyl)-3-phenylurea], the IC50 in experiment [2] is 10 to 100 nM; in experiment [3], 100 to 1000 nM; in experiment [4], under 10 nM.
On the same counts, the results for `CCn1c(=O)c(-c2cc(NC(=O)Nc3ccccc3)c(F)cc2C)cc2cnc(Nc3ccc(C)nc3)cc21` [Example 111, 1-(5-(1-ethyl-7-((6-methylpyridin-3-yl)amino)-2-oxo-1,2-dihydro-1,6-naphthyridin-3-yl)-2-fluoro-4-methylphenyl)-3-phenylurea] are 10 to 100 nM, 100 to 1000 nM and 10 to 100 nM.
The like results for `CCn1c(=O)c(-c2cc(NC(=O)Nc3ccccc3)c(F)cc2Cl)cc2cnc(NC3CCN(C)CC3)cc21` [Example 46, 1-(4-chloro-5-(1-ethyl-7-(1-methylpiperidin-4-ylamino)-2-oxo-1,2-dihydro-1,6-naphthyridin-3-yl)-2-fluorophenyl)-3-phenylurea] were, in that order, 100 to 1000 nM, over 1000 nM and 10 to 100 nM.
